Laboratory results published in patent US20220220106A1, “QUINOLINE COMPOUNDS AND PHARMACEUTICAL COMPOSITIONS AND USES THEREOF” (Academy of Military Medical Sciences, priority 2019, published 2022).
Read-outs that look alike come from different tables or passages of the source.

Columns and labels:
[1] = test system: RD cells; experiment: Detection of cytotoxicity in RD cells (CellTiter-Glo); type: cell-based; conditions: 4 days, CellTiter-Glo, median toxic dose
Method: Detection of Cytotoxicity:
(1) The compound to be tested was diluted to a concentration of 400 μM with the cell maintenance solution, and 3-fold gradient dilution was carried out to obtain 10 concentrations in total.
(2) The diluted compound was added to a 96-well plate with white wall and transparent bottom, with 100 μL per well. An equal volume of the cell maintenance solution was added to the cell control group.
(3) RD cells were inoculated into the above 96-well plate at a concentration of 1*10^5/mL, with 100 μL per well, to reach a final volume of 200 μL per well, and the final concentration of drug was 0.5 times the pretreatment concentration.
(4) The RD cells were cultured at 37° C. for 4 days for testing.
(5) The Buffer of CellTiter-Glo® luminescent cell viability assay reagent was mixed with the substrate in the dark to prepare a working solution.
(§1) (6) The culture medium in the plate was discarded, the plate was dried by patting, 100 μL of the detection reagent was added to each well, and the 96-well plate was shaken on an orbital shaker for 4 minutes to induce cell lysis. After keeping in the dark and subjecting to signal stabilization for 15 minutes, the chemiluminescence unit was detected, and the plate reading program was performed according to the CellTiter-Glo preset program.
(§2) The formula for calculating the inhibition rates of drug at different dilution degrees was as follows: inhibition rate (%)=(average value of cell control group−value of experimental group)/(average value of cell control group−minimum value of experimental group)*100
(§3) The inhibition rate-concentration curve was fitted to S-curve by using origin8.0 software, and the IC50 value of the compound to be tested was calculated. The same method was used to calculate the TD50 value, and the selection index SI=TD50/IC50 was calculated according to the half maximal inhibitory concentration IC50 and the median toxic dose TD50.

[2] = test system: Enterovirus 71 (EV71) H strain; experiment: In vitro anti-EV71 activity (antiviral activity in RD cells, CellTiter-Glo); type: cell-based; conditions: for IC50: EV71 H strain, RD cells, 4 days, CellTiter-Glo, read-out: IC50; for in vitro anti-EV71 activity, in words: EV71, RD cells
Method: According to the mass and molecular weight of the compound to be tested, the compound to be tested was dissolved to 100 mM (mmol/L) with DMSO.
Detection of Antiviral Activity:
(1) First, the compound to be tested was diluted to 800 μM with cell maintenance solution (DMEM+2% FBS, Gibco, catalog numbers: 11995-065, 1600-044), and three-fold gradient dilution was performed to prepare 10 concentrations in total. The diluted compound was added to a 96-well plate with white wall and transparent bottom, 50 μl per well. To both the cell control group and the virus control group, an equal volume of the cell maintenance solution was added.
(2) EV71 virus (purchased from ATCC) was taken out from the −80° C. refrigerator and equilibrated to room temperature.
(3) The virus seed was diluted with a virus growth solution (DMEM+2% FBS, Gibco, catalog numbers: 11995-065, 1600-044) to 100TCID50, the diluted virus seed was added to the 96-well plate of (1), with […] per well. The same volume of the virus growth solution was added to the cell control group.
(4) RD cells (purchased from ATCC) were inoculated at a concentration of 1*10^5/mL into the 96-well plate of (1), with 100 μL per well, to reach a final volume of 200 μL per well. The final concentration of drug was 0.25 times the initial concentration.
(5) RD cells were cultured at 37° C. for 4 days for testing.
(6) The Buffer of CellTiter-Glo® luminescent cell viability assay reagent (Promega) was mixed with the substrate in the dark to prepare a working solution.
as §1, with “(7)” for “(6)”, “detected by using MD5 microplate reader (Molecular Devices),” for “detected,”
The inhibition rate-concentration curve was fitted to S-curve by using origin8.0 software to calculate the IC50 value of the compound to be tested.
as §2, §3

Row | Molecule | TD50 [1] | melting point | IC50 ([2]; Enterovirus A, 96 h) | in vitro anti-EV71 activity, in words [2] | IC50 [2]
1 | CC(C)c1ccc(-c2ccc3ncc4oc(=O)n(-c5cccc(C(F)(F)F)c5)c4c3c2)cc1 [HTL-5-35, 8-(4-isopropyl)phenyl-1-[3-(trifluoromethyl)phenyl]oxazolo[5,4-c]quinolin-2(1H)-one] | 69.36 ± 0.28 µM | 219 to 220 °C | > 200 µM |  | 
2 | CC(=O)/C=C/c1cnc2ccc(-c3ccncc3)cc2c1Nc1cccc(C(F)(F)F)c1 [HTL-3-04, (E)-6-(4-pyridyl)-4-[3-(trifluoromethyl)phenyl]aminoquinoline-3-butenone] | >200 µM | 192 to 195 °C | > 200 µM |  | 
3 | CC(=O)/C=C/c1cnc2ccc(-c3ccc(F)c(F)c3)cc2c1Nc1cccc(C(F)(F)F)c1 [HTL-3-34, (E)-6-(3,4-difluoro)phenyl-4-[3-(trifluoromethyl)phenyl]aminoquinoline-3-butenone] | 3.02 ± 0.91 µM | 210 to 213 °C | > 200 µM |  | 
4 | CCCc1ccc(-c2ccc3ncc(/C=C/C(C)=O)c(Nc4cccc(C(F)(F)F)c4)c3c2)cc1 [HTL-3-40, (E)-6-(4-propyl)phenyl-4-[3-(trifluoromethyl)phenyl]aminoquinoline-3-butenone] | 0.83 ± 0.03 µM | 166 to 169 °C | > 200 µM |  | 
5 | CC(=O)/C=C/c1cnc2ccc(-c3cn[nH]c3)cc2c1Nc1cccc(C(F)(F)F)c1 [HTL-3-26, (E)-6-(1H-4-pyrazolyl)-4-[3-(trifluoromethyl)phenyl]aminoquinoline-3-butenone] | 1.43 ± 1.62 µM | 177 to 179 °C | 0.85 ± 0.03 µM | moderate anti-EV71 activity | 
6 | CC(=O)/C=C/c1cnc2ccc(-c3ccc(F)cc3)cc2c1Nc1cccc(C(F)(F)F)c1 [HTL-3-12, (E)-6-(4-fluoro)phenyl-4-[3-(trifluoromethyl)phenyl]aminoquinoline-3-butenone] | >200 µM | 167 to 169 °C | > 200 µM |  | 
7 | Cc1ccc(Nc2ccc3ncc4ccc(=O)n(-c5cccc(C(F)(F)F)c5)c4c3c2)cc1C [HTL-6-17, 9-(3,4-dimethylphenyl)imino-2-oxo-1-[3-(trifluoromethyl)phenyl]-1,2-dihydrobenzo[h][1,6]naphthyridine] | 6.81 ± 1.03 µM | 140 to 141 °C | > 200 µM |  | 
8 | O=c1ccc2cnc3ccc(Nc4ccc(F)cc4)cc3c2n1-c1cccc(C(F)(F)F)c1 [HTL-6-23, 9-(4-fluorophenyl)imino-2-oxo-1-[3-(trifluoromethyl)phenyl]-1,2-dihydrobenzo[h][1,6]naphthyridine] | 7.22 ± 0.47 µM | 176 to 179 °C | > 200 µM |  | 
9 | O=C(Nc1ccc(-c2ccc3ncc4oc(=O)n(-c5cccc(C(F)(F)F)c5)c4c3c2)cn1)OCc1ccccc1 [HTL-7-23, 8-[3-(6-benzyloxyamido)pyridyl]-1-[3-(trifluoromethyl)phenyl]oxazolo[5,4-c]quinolin-2(1H)-one] | >200 µM | 284 to 286 °C | > 200 µM |  | 
10 | COC(=O)/C=C/c1ccc2ncc3oc(=O)n(-c4cccc(C(F)(F)F)c4)c3c2c1 [HTL-6-33, (E)-8-(2-methoxycarbonyl-vinyl)-1-[3-(trifluoromethyl)phenyl]oxazolo[5,4-c]quinolin-2(1H)-one] | 71.99 ± 0.78 µM | 243 to 245 °C | > 200 µM |  | 
11 | COc1cncc(-c2ccc3ncc(/C=C/C(C)=O)c(Nc4cccc(C(F)(F)F)c4)c3c2)c1 [HTL-3-07, (E)-6-[3-(5-methoxy)pyridyl]-4-[3-(trifluoromethyl)phenyl]aminoquinoline-3-butenone] | >200 µM | 164 to 167 °C | > 200 µM |  | 
12 | N#CC/C=C/c1ccc2ncc3oc(=O)n(-c4cccc(C(F)(F)F)c4)c3c2c1 [HTL-6-31, (E)-8-(3-cyano-propenyl)-1-[3-(trifluoromethyl)phenyl]oxazolo[5,4-c]quinolin-2(1H)-one] | 9.20 ± 2.34 µM | 177 to 179 °C | > 200 µM |  | 
13 | O=c1oc2cnc3ccc(-c4ccc(F)nc4)cc3c2n1-c1cccc(C(F)(F)F)c1 [HTL-5-28, 8-[3-(6-fluoro)pyridyl]-1-[3-(trifluoromethyl)phenyl]oxazolo[5,4-c]quinolin-2(1H)-one] | >200 µM | 262 to 263 °C | > 200 µM |  | 
14 | Cc1ccc(Nc2ccc3ncc4ccc(=O)n(-c5cccc(C(F)(F)F)c5)c4c3c2)cn1 [HTL-6-19, 9-[3-(6-methylpyridyl)]imino-2-oxo-1-[3-(trifluoromethyl)phenyl]-1,2-dihydrobenzo[h][1,6]naphthyridine] | 22.62 ± 2.15 µM | 234 to 236 °C | > 200 µM |  | 
15 | Nc1cncc(Nc2ccc3ncc4ccc(=O)n(-c5cccc(C(F)(F)F)c5)c4c3c2)c1 [HTL-6-29, 9-[3-(5-aminopyridyl)]imino-2-oxo-1-[3-(trifluoromethyl)phenyl]-1,2-dihydrobenzo[h][1,6]naphthyridine] | 28.65 ± 1.67 µM | 156 to 158 °C | 1.75 ± 0.41 µM | moderate activity | 
16 | Nc1ccc(-c2ccc3ncc4oc(=O)n(-c5cccc(C(F)(F)F)c5)c4c3c2)cn1 [HTL-4-32, 8-[3-(6-amino)pyridyl]-1-[3-(trifluoromethyl)phenyl]oxazolo[5,4-c]quinolin-2(1H)-one] | 14.5 ± 6.4 µM | 146 to 147 °C | 5.57 ± 1.53 µM | moderate inhibitory activity | 
17 | CC(=O)/C=C/c1cnc2ccc(-c3cccc(Cl)c3)cc2c1Nc1cccc(C(F)(F)F)c1 [HTL-3-36, (E)-6-(3-chloro)phenyl-4-[3-(trifluoromethyl)phenyl]aminoquinoline-3-butenone] | 4.65 ± 3.50 µM | 182 to 183 °C | > 200 µM |  | 
18 | CCCCC(=O)Nc1ccc(-c2ccc3ncc4oc(=O)n(-c5cccc(C(F)(F)F)c5)c4c3c2)cn1 [WSX-1-24, 8-[3-(6-valerylamino)pyridyl]-1-[3-(trifluoromethyl)phenyl]oxazolo[5,4-c]quinolin-2(1H)-one] | 4.27 ± 2.83 µM | 231 to 232 °C | > 200 µM |  | 
19 | O=c1oc2cnc3ccc(-c4cccs4)cc3c2n1-c1cccc(C(F)(F)F)c1 [HTL-5-26, 8-(2-thienyl)-1-[3-(trifluoromethyl)phenyl]oxazolo[5,4-c]quinolin-2(1H)-one] | >200 µM | 272 to 274 °C | > 200 µM |  | 
20 | CC(=O)/C=C/c1cnc2ccc(-c3ccc(C(N)=O)cc3)cc2c1Nc1cccc(C(F)(F)F)c1 [HTL-3-45, (E)-6-(4-carbamoyl)phenyl-4-[3-(trifluoromethyl)phenyl]aminoquinoline-3-butenone] | 2.42 ± 0.06 µM | 211 to 214 °C | > 200 µM |  | 
21 | (E)-6-[3-(N-6-benzyloxyamido)pyridyl]-4-[3-(trifluoromethyl)phenyl]aminoquinoline-3-butenone [HTL-7-22] | 9.4 ± 8.0 µM |  |  |  | > 200 µM
22 | O=c1ccc2cnc3ccc(Nc4ccc(C(F)(F)F)cc4)cc3c2n1-c1cccc(C(F)(F)F)c1 [HTL-6-16, 9-[4-(trifluoromethyl)phenyl]imino-2-oxo-1-[3-(trifluoromethyl)phenyl]-1,2-dihydrobenzo[h][1,6]naphthyridine] | 7.06 ± 0.23 µM |  | > 200 µM |  | 
